Assay results: patent US20240287076A1, “COMPOUNDS FOR TARGETING DEGRADATION OF BRUTON'S TYROSINE KINASE” (BIOGEN MA INC., priority 2021, published 2024)

target: T1, BTK (Homo sapiens, UniProt Q06187); assay: BTK degradation assay using the HiBiT Method (Nano-Glo HiBiT Lytic Assay, GM01501.3 cells); assay type: cell-based; conditions: HiBiT Degradation on GM01501.3 BTK @ 6 hours
T1 construct: The GM01501.3 cell line endogenously expresses BTK with a HiBiT fusion tag via CRISPR knock-in at its C-terminal region; endogenous in cells; host or cells: GM01501.3 (GM01501 cells engineered by CRISPR knock-in of HiBiT at the BTK locus)
T1 sequence (Q06187 whole entry, the tested form may be a part): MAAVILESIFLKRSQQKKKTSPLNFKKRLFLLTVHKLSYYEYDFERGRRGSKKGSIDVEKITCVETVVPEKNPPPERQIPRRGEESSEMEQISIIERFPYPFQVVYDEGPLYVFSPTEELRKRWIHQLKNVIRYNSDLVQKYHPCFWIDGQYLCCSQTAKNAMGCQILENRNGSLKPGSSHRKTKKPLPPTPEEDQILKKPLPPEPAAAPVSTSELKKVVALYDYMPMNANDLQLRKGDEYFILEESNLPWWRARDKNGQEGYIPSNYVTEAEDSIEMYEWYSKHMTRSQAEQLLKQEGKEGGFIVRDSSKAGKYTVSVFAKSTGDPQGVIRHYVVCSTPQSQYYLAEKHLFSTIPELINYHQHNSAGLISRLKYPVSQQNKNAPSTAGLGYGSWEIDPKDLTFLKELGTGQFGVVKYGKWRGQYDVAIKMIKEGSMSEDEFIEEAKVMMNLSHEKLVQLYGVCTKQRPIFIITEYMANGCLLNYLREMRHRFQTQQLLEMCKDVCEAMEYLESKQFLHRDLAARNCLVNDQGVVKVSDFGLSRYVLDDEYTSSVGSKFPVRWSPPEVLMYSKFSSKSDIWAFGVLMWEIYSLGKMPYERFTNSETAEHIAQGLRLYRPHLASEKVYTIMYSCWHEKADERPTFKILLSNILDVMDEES
How it was run: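 CRISPR knock-in GM01501.3 cells expressing endogenous BTK with C-terminal HiBiT tag, treated 6 h at 37 °C with compounds, 11-point half-log titration from 10 μM top, duplicates. Remaining BTK quantified by Nano-Glo HiBiT lytic luminescence versus DMSO controls; DC50 reported.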

Row | DC50 | Compound
1 | < 100 nM | CC(C)(C)c1nc(C(=O)NCc2ccc(-c3ncnn4cc(CCCCN5CCC(c6c(F)cc(C7CCC(=O)NC7=O)cc6F)CC5)cc34)cc2F)no1 (centres unmarked) [Example 136, 5-tert-butyl-N-[[4-[6-[4-[4-[4-(2,6-dioxo-3-piperidyl)-2,6-difluoro-phenyl]-1-piperidyl]butyl]pyrrolo[2,1-f][1,2,4]triazin-4-yl]-2-fluoro-phenyl]methyl]-1,2,4-oxadiazole-3-carboxamide]
2 | 100 to 500 nM | Cc1cc(-c2ncnn3cc(-c4ccc(CN5CCCC(c6ccc(C7CCC(=O)NC7=O)cc6)C5)cc4)cc23)ccc1CNC(=O)c1noc(C(C)(C)C)n1 (centres unmarked) [Example 8, 5-tert-butyl-N-[[4-[6-[4-[[3-[4-(2,6-dioxo-3-piperidyl)phenyl]-1-piperidyl]methyl]phenyl]pyrrolo[2,1-f][1,2,4]triazin-4-yl]-2-methyl-phenyl]methyl]-1,2,4-oxadiazole-3-carboxamide]
3 | < 100 nM | Cc1cc(-c2ncnn3cc(-c4cc(CN5CCC(c6ccc(C7CCC(=O)NC7=O)cc6)CC5)ccn4)cc23)ccc1CNC(=O)c1noc(C(C)(C)C)n1 (centres unmarked) [Example 216, 5-(tert-butyl)-N-(4-(6-(4-((4-(4-(2,6-dioxopiperidin-3-yl)phenyl)piperidin-1-yl)methyl)pyridin-2-yl)pyrrolo[2,1-f][1,2,4]triazin-4-yl)-2-methylbenzyl)-1,2,4-oxadiazole-3-carboxamide]
4 | < 100 nM | CC(C)(C)c1nc(C(=O)NCc2ccc(-c3ncnn4cc(-c5ccc(CN6CCCC(c7ccc(OC8CCC(=O)NC8=O)cc7)C6)cn5)cc34)cc2F)no1 (centres unmarked) [Example 236, 5-(tert-butyl)-N-(4-(6-(5-((3-(4-((2,6-dioxopiperidin-3-yl)oxy)phenyl)piperidin-1-yl)methyl)pyridin-2-yl)pyrrolo[2,1-f][1,2,4]triazin-4-yl)-2-fluorobenzyl)-1,2,4-oxadiazole-3-carboxamide]
5 | < 100 nM | Cc1cc(-c2ccnn3cc(CCCCN4CCC(c5ccc(NC6CCC(=O)NC6=O)cc5)CC4)cc23)ccc1CNC(=O)c1noc(C(C)(C)C)n1 (centres unmarked) [Example 156, 5-tert-butyl-N-[[4-[6-[4-[4-[4-[(2,6-dioxo-3-piperidyl)amino]phenyl]-1-piperidyl]butyl]pyrrolo[1,2-b]pyridazin-4-yl]-2-methyl-phenyl]methyl]-1,2,4-oxadiazole-3-carboxamide]
6 | < 100 nM | CC(C)(C)c1nc(C(=O)NCc2ccc(-c3ncnn4cc(CCCCN5CCC(n6ccc(NC7CCC(=O)NC7=O)n6)CC5)cc34)cc2F)no1 (centres unmarked) [Example 137, 5-tert-butyl-N-[[4-[6-[4-[4-[3-[(2,6-dioxo-3-piperidyl)amino]pyrazol-1-yl]-1-piperidyl]butyl]pyrrolo[2,1-f][1,2,4]triazin-4-yl]-2-fluoro-phenyl]methyl]-1,2,4-oxadiazole-3-carboxamide]
7 | < 100 nM | Cc1cc(-c2ncnn3cc(-c4ccc(CN5CCC(c6ccc(NC7CCC(=O)NC7=O)cc6)CC5(C)C)cc4)cc23)ccc1CNC(=O)c1noc(C(C)(C)C)n1 (centres unmarked) [Example 5, 5-tert-butyl-N-[[4-[6-[4-[[4-[4-[(2,6-dioxo-3-piperidyl)amino]phenyl]-2,2-dimethyl-1-piperidyl]methyl]phenyl]pyrrolo[2,1-f][1,2,4]triazin-4-yl]-2-methyl-phenyl]methyl]-1,2,4-oxadiazole-3-carboxamide]
8 | < 100 nM | Cc1cc(-c2ncnn3cc(-c4ccc(CN5CCC(c6ccc7c(N8CCC(=O)NC8=O)nn(C)c7c6)CC5)cc4)cc23)ccc1CNC(=O)c1noc(C(C)(C)C)n1 [Example 28, 5-tert-butyl-N-[[4-[6-[4-[[4-[3-(2,4-dioxohexahydropyrimidin-1-yl)-1-methyl-indazol-6-yl]-1-piperidyl]methyl]phenyl]pyrrolo[2,1-f][1,2,4]triazin-4-yl]-2-methyl-phenyl]methyl]-1,2,4-oxadiazole-3-carboxamide]
9 | < 100 nM | Cc1cc(-c2ncnn3cc(-c4ccc(CN5CCC(c6ccc(NC7CCC(=O)NC7=O)cc6)CC5)cc4)cc23)ccc1CNC(=O)c1noc(C(C)(C)C)n1 (racemic) [Example 1, 5-tert-butyl-N-[[4-[6-[4-[[4-[4-[(2,6-dioxo-3-piperidyl)amino]phenyl]-1-piperidyl]methyl]phenyl]pyrrolo[2,1-f][1,2,4]triazin-4-yl]-2-methyl-phenyl]methyl]-1,2,4-oxadiazole-3-carboxamide]
10 | < 100 nM | Cc1cc(-c2ncnn3cc(N4CCN(C(=O)CCc5ccccc5CNC(=O)c5ccc(OC6CCC(=O)NC6=O)cc5)CC4)cc23)ccc1CNC(=O)c1noc(C(C)(C)C)n1 (centres unmarked) [Example 183, 5-(tert-butyl)-N-(4-(6-(4-(3-(2-((4-((2,6-dioxopiperidin-3-yl)oxy)benzamido)methyl)phenyl)propanoy 1)piperazin-1-yl)pyrrolo[2,1-f][1,2,4]triazin-4-y1)-2-methylbenzyl)-1,2,4-oxadiazole-3-carboxamide]
11 | < 100 nM | Cc1cc(-c2ncnn3cc(OC[C@@H](F)CN4CCC(c5ccc6c(N7CCC(=O)NC7=O)nn(C)c6c5)CC4)cc23)ccc1CNC(=O)c1noc(C(C)(C)C)n1 [Example 295, (S)-5-(tert-butyl)-N-(4-(6-(3-(4-(3-(2,4-dioxotetrahydropyrimidin-1(2H)-yl)-1-methyl-1H-indazol-6-yl)piperidin-1-yl)-2-fluoropropoxy)pyrrolo[2,1-f][1,2,4]triazin-4-yl)-2-methylbenzyl)-1,2,4-oxadiazole-3-carboxamide]
12 | < 100 nM | Cc1cc(-c2ncnn3cc(CCN4CCC(c5ccc6c7c(cccc57)C(=O)N6C5CCC(=O)NC5=O)CC4)cc23)ccc1CNC(=O)c1noc(C(C)(C)C)n1 (centres unmarked) [Example 274, 5-(tert-butyl)-N-(4-(6-(2-(4-(1-(2,6-dioxopiperidin-3-yl)-2-oxo-1,2-dihydrobenzo[cd]indol-6-yl)piperidin-1-yl)ethyl)pyrrolo[2,1-f][1,2,4]triazin-4-yl)-2-methylbenzyl)-1,2,4-oxadiazole-3-carboxamide]
13 | < 100 nM | Cc1cc(-c2ncnn3cc(-c4ccc(CN5CCC(c6ccc(NC7CCC(=O)NC7=O)cc6)CC5)cc4)cc23)ccc1CNC(=O)c1ccc(C(C)C)cn1 (centres unmarked) [Example 89, N-[[4-[6-[4-[[4-[4-[(2,6-dioxo-3-piperidyl)amino]phenyl]-1-piperidyl]methyl]phenyl]pyrrolo[2,1-f][1,2,4]triazin-4-yl]-2-methyl-phenyl]methyl]-5-isopropyl-pyridine-2-carboxamide]
14 | < 100 nM | Cc1cc(-c2ncnn3cc(N4CCN(C(=O)c5ncoc5CNC(=O)c5ccc(OC6CCC(=O)NC6=O)cc5)CC4)cc23)ccc1CNC(=O)c1noc(C(C)(C)C)n1 (centres unmarked) [Example 189, 5-(tert-butyl)-N-(4-(6-(4-(5-((4-((2,6-dioxopiperidin-3-yl)oxy)benzamido)methyl)oxazole-4-carbonyl)piperazin-1-yl)pyrrolo[2,1-f][1,2,4]triazin-4-yl)-2-methylbenzyl)-1,2,4-oxadiazole-3-carboxamide]
15 | 100 to 500 nM | Cc1cc(-c2ncnn3cc(-c4ccc(CCCCc5ccc(NC6CCC(=O)NC6=O)cc5)cc4)cc23)ccc1CNC(=O)c1noc(C(C)(C)C)n1 (centres unmarked) [Example 149, 5-tert-butyl-N-[[4-[6-[4-[4-[4-[(2,6-dioxo-3-piperidyl)amino]phenyl]butyl]phenyl]pyrrolo[2,1-f][1,2,4]triazin-4-yl]-2-methyl-phenyl]methyl]-1,2,4-oxadiazole-3-carboxamide]
16 | < 100 nM | Cc1cc(-c2ncnn3cc(-c4ccc(CN5CCC(c6cnc(NC7CCC(=O)NC7=O)cn6)CC5)cc4)cc23)ccc1CNC(=O)c1noc(C(C)(C)C)n1 (centres unmarked) [Example 12, 5-tert-butyl-N-[[4-[6-[4-[[4-[5-[(2,6-dioxo-3-piperidyl)amino]pyrazin-2-yl]-1-piperidyl]methyl]phenyl]pyrrolo[2,1-f][1,2,4]triazin-4-yl]-2-methyl-phenyl]methyl]-1,2,4-oxadiazole-3-carboxamide]
17 | < 100 nM | Cc1ccc(C(=O)NCc2ccc(-c3ncnn4cc(-c5ccc(CN6CCC(c7ccc(NC8CCC(=O)NC8=O)cc7)CC6)cc5)cc34)cc2C)cc1 (centres unmarked) [Example 68, N-[[4-[6-[4-[[4-[4-[(2,6-dioxo-3-piperidyl)amino]phenyl]-1-piperidyl]methyl]phenyl]pyrrolo[2,1-f][1,2,4]triazin-4-yl]-2-methyl-phenyl]methyl]-4-methyl-benzamide]
18 | < 100 nM | Cc1cc(-c2ncnn3cc(-c4ccc(OCCN5CCC(c6ccc(OC7CCC(=O)NC7=O)cc6)CC5)cc4)cc23)ccc1CNC(=O)c1noc(C(C)(C)C)n1 (centres unmarked) [Example 107, 5-tert-butyl-N-[[4-[6-[4-[2-[4-[4-[(2,6-dioxo-3-piperidyl)oxy]phenyl]-1-piperidyl]ethoxy]phenyl]pyrrolo[2,1-f][1,2,4]triazin-4-yl]-2-methyl-phenyl]methyl]-1,2,4-oxadiazole-3-carboxamide]
19 | < 100 nM | Cc1cc(-c2ncnn3cc(-c4ccc(CN5CCC(c6ccc(NC7CCC(=O)NC7=O)cc6)CC5)cc4)cc23)ccc1CNC(=O)c1ccc(Cl)cc1 (centres unmarked) [Example 62, 4-chloro-N-[[4-[6-[4-[[4-[4-[(2,6-dioxo-3-piperidyl)amino]phenyl]-1-piperidyl]methyl]phenyl]pyrrolo[2,1-f][1,2,4]triazin-4-yl]-2-methyl-phenyl]methyl]benzamide]

Row | Compound | DC50
20 | CC(C)(C)OC1CN(C(=O)NCc2ccc(-c3ncnn4cc(-c5ccc(CN6CCC(c7ccc(NC8CCC(=O)NC8=O)cn7)CC6)cc5)cc34)cc2F)C1 (centres unmarked) [Example 100, 3-tert-butoxy-N-[[4-[6-[4-[[4-[5-[(2,6-dioxo-3-piperidyl)amino]-2-pyridyl]-1-piperidyl]methyl]phenyl]pyrrolo[2,1-f][1,2,4]triazin-4-yl]-2-fluoro-phenyl]methyl]azetidine-1-carboxamide] | < 100 nM
